In PubChem BioAssay (NCI):
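GI50 is the concentration that inhibits growth by half. TGI: total growth inhibition.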

Assays:
Assay in all cases: DTP human tumour cell line panel, 384-well format
TK-10 renal = system: TK-10 renal
CAKI-1 renal = system: CAKI-1 renal
BT-549 breast = system: BT-549 breast
SK-MEL-28 melanoma = system: SK-MEL-28 melanoma
UACC-257 melanoma = system: UACC-257 melanoma
NCI-H23 lung = system: NCI-H23 lung
HOP-92 NSCLC = system: HOP-92 NSCLC
786-0 renal = system: 786-0 renal
NCI-H322M lung = system: NCI-H322M lung
SF-295 CNS = system: SF-295 CNS
HT29 colon = system: HT29 colon
CCRF-CEM leukemia = system: CCRF-CEM leukemia
SK-OV-3 ovarian = system: SK-OV-3 ovarian
RPMI-8226 leukemia = system: RPMI-8226 leukemia
OVCAR-8 ovarian = system: OVCAR-8 ovarian
T-47D breast = system: T-47D breast
A498 renal = system: A498 renal
SK-MEL-2 melanoma = system: SK-MEL-2 melanoma
KM12 colon = system: KM12 colon
OVCAR-4 ovarian = system: OVCAR-4 ovarian
SF-268 CNS = system: SF-268 CNS
HCT-15 colon = system: HCT-15 colon
MDA-MB-435 melanoma = system: MDA-MB-435 melanoma
SR leukemia = system: SR leukemia
K-562 leukemia = system: K-562 leukemia
SF-539 CNS = system: SF-539 CNS
OVCAR-5 ovarian = system: OVCAR-5 ovarian
NCI/ADR-RES ovarian = system: NCI/ADR-RES ovarian
U251 glioblastoma = system: U251 glioblastoma

CNC[C@@H](NC(=O)c1ccc(-c2nc([C@H]3CC[C@H](O)[C@@H](F)C3)cnc2N)cc1F)c1cc(F)cc(Br)c1
GI50 (TK-10 renal): 17 µM | TGI (TK-10 renal): 31.4 µM | GI50 (CAKI-1 renal): 16.9 µM | TGI (CAKI-1 renal): 30.9 µM | GI50 (BT-549 breast): 13.7 µM | TGI (BT-549 breast): 26.6 µM | GI50 (SK-MEL-28 melanoma): 18.8 µM | TGI (SK-MEL-28 melanoma): 33 µM | GI50 (UACC-257 melanoma): 14.6 µM | TGI (UACC-257 melanoma): 27.8 µM | GI50 (NCI-H23 lung): 19.4 µM | TGI (NCI-H23 lung): 36.9 µM | GI50 (HOP-92 NSCLC): 16.8 µM | TGI (HOP-92 NSCLC): 30.6 µM | GI50 ([…]-0 renal): 15 µM | TGI (786-0 renal): 28.3 µM | GI50 (NCI-H322M lung): 18.7 µM | TGI (NCI-H322M lung): 33.4 µM | GI50 (SF-295 CNS): 18.5 µM | TGI (SF-295 CNS): 32.6 µM | GI50 (HT29 colon): 16.1 µM | TGI (HT29 colon): 29.9 µM | GI50 (CCRF-CEM leukemia): 16.8 µM | TGI (CCRF-CEM leukemia): 30.5 µM | GI50 (SK-OV-3 ovarian): 16.9 µM | TGI (SK-OV-3 ovarian): 30.7 µM | GI50 (RPMI-8226 leukemia): 12.4 µM | TGI (RPMI-8226 leukemia): 24.9 µM | GI50 (OVCAR-8 ovarian): 18.9 µM | TGI (OVCAR-8 ovarian): 33.1 µM | GI50 (T-47D breast): 22.5 µM | TGI (T-47D breast): 37.2 µM | GI50 (A498 renal): 16.6 µM | TGI (A498 renal): 30.3 µM | GI50 (SK-MEL-2 melanoma): 20.5 µM | TGI (SK-MEL-2 melanoma): 34.8 µM | GI50 (KM12 colon): 17.5 µM | TGI (KM12 colon): 31.5 µM | GI50 (OVCAR-4 ovarian): 19.9 µM | TGI (OVCAR-4 ovarian): 36.1 µM | GI50 (SF-268 CNS): 17.2 µM | TGI (SF-268 CNS): 31.1 µM | GI50 (HCT-15 colon): 19.4 µM | TGI (HCT-15 colon): 33.7 µM | GI50 (MDA-MB-435 melanoma): 20.3 µM | TGI (MDA-MB-435 melanoma): 34.7 µM | GI50 (SR leukemia): 12.1 µM | TGI (SR leukemia): 24.5 µM | GI50 (K-562 leukemia): 16.8 µM | TGI (K-562 leukemia): 30.5 µM | GI50 (SF-539 CNS): 17.2 µM | TGI (SF-539 CNS): 31 µM | GI50 (OVCAR-5 ovarian): 17.5 µM | TGI (OVCAR-5 ovarian): 33.5 µM | GI50 (NCI/ADR-RES ovarian): 48.5 µM | TGI (NCI/ADR-RES ovarian): > 100 µM | GI50 (U251 glioblastoma): 17.5 µM
